In patent US5889148A, “Antibiotic peptides” (priority 1995, dated 1999):
No end group written: not given here.

Legend:
red blood cells = assay type: cell-based, human
Method: To 190 μl of the red blood cell-containing solution thus prepared, was added 10 μl of peptide solution prior to the incubation at 37° C. for 30 min. After incubation, centrifugation followed to obtain supernatant. Then, a level (%) of cell lysis caused by peptides was determined by the examination of absorbance at 576 nm (see: Table 12). At this moment, TEDFK, TEDFK-1A, M5, M6, M19, M22 and M32 were chosen as peptide fragments of Tenecin, and an antibiotic peptide KLK (see: Natori, S. et al., J. Biochem., 117(6):1312-1316(1995)) and a commercially available antibiotic, Amphotericin B(Sigma, USA) known to lyse a red blood cell were employed as controls, respectively.

[1] = tested on: Staphylococcus aureus (ATCC 6538); experiment: MIC test, antibacterial activity; assay type: cell-based
Method: (§1) Antibacterial and antifungal activities of the peptides were determined by employing MIC test as follows:
(§2) To determine antifungal activity, a test organism Candida albicans (ATCC 36232) was cultured on Sabouraud dextrose agar plate for 24 to 48 hrs, and colonies thus grown were suspended on Sabouraud dextrose medium(Gibco, USA) to have O.D.530 =0.5(3×10^6 cells) and further diluted with 100-fold to have O.D.530 =0.005(3×10^4 cells). 100 μl of Candida albicans culture thus prepared was pipetted on 96-well microplates which had already contained 100 μl of a serially diluted peptide solution.
Antibacterial activity of peptide was determined analogously as above, with an exception that Staphylococcus aureus (ATCC 6538) selected as a test organism was cultured on M-3 medium(Gibco, USA) at 37° C. and cell number was adjusted to 2×10^8 cells before 100-fold dilution.

[2] = tested on: Candida albicans (ATCC 36232); experiment: MIC test, antifungal activity; assay type: cell-based
Method: as §1, §2

[3] = Table 4, addition of an amino acid to N-terminal of TEDF
[4] = Table 1, peptide fragments of Tenecin
[5] = Table 3, addition of an amino acid to N-terminal of TED
[6] = Table 11, enantiomer, retro-inverso, D-amino acid derivatives of M22
[7] = Table 8, TEDFK derivatives of group 1

C[C@@H]1[C@H](O)[C@@H](C)/C=C/C=C/C=C/C=C/C=C/C=C/C=C/[C@H](O[C@@H]2O[C@H](C)[C@@H](O)[C@H](N)[C@@H]2O)C[C@@H]2O[C@](O)(C[C@@H](O)C[C@@H](O)[C@H](O)CC[C@@H](O)C[C@@H](O)CC(=O)O[C@H]1C)C[C@H](O)[C@H]2C(=O)O [Amphotericin B]
cell lysis (in words) (red blood cells): cause cell lysis

FFYCNGKRVCVCR--NH2 (FFYCNGKRVCVCR-NH2; cysteine pairing not given here) [TEDFF]
MIC S. aureus [1, 3]: 5 µg/mL | MIC C. albicans [2, 3]: 3 µg/mL

LFYCNGKRVCVCR--NH2 (LFYCNGKRVCVCR-NH2; cysteine pairing not given here) [TEDFL]
MIC S. aureus [1, 3]: 30 µg/mL | MIC C. albicans [2, 3]: 100 µg/mL

YCNGKRVCVCR--NH2 (YCNGKRVCVCR-NH2; cysteine pairing not given here) [TED]
MIC S. aureus [1, 4]: 10 µg/mL | MIC S. aureus [1, 5]: 10 µg/mL | antifungal activity (in words) [2]: excellent antifungal activity | MIC C. albicans [2, 4]: 10 µg/mL | MIC against C. albicans ([2]; Table 2, modification of N-terminal residues of TED): 10 µg/mL | MIC C. albicans [2, 5]: 10 µg/mL

DFYCNGKRVCVCR--NH2 (DFYCNGKRVCVCR-NH2; cysteine pairing not given here) [TEDFD]
MIC S. aureus [1, 3]: > 500 µg/mL | MIC C. albicans [2, 3]: > 500 µg/mL

rcvcvrkgncyfk-NH2 [Retro-inverso of TEDFK]
MIC S. aureus [1, 6]: 6.25 µg/mL | MIC C. albicans [2, 6]: 6.25 µg/mL

KFYCNGKRICICR--NH2 (KFYCNGKRICICR-NH2; cysteine pairing not given here) [M13]
MIC S. aureus [1, 7]: 6.35 µg/mL | MIC C. albicans [2, 7]: 6.25 µg/mL

YFYCNGKRVCVCR--NH2 (YFYCNGKRVCVCR-NH2; cysteine pairing not given here) [TEDFY]
MIC S. aureus [1, 3]: 50 µg/mL | MIC C. albicans [2, 3]: 100 µg/mL

PYCNGKRVCVCR--NH2 (PYCNGKRVCVCR-NH2; cysteine pairing not given here) [TEDP]
MIC S. aureus [1, 5]: 5 µg/mL | MIC C. albicans [2, 5]: 5 µg/mL

KFYCDGKRVCVCR--NH2 (KFYCDGKRVCVCR-NH2; cysteine pairing not given here) [M18]
MIC S. aureus [1, 7]: 12.7 µg/mL | MIC C. albicans [2, 7]: 12.5 µg/mL

SYCNGKRVCVCR--NH2 (SYCNGKRVCVCR-NH2; cysteine pairing not given here) [TEDS]
MIC S. aureus [1, 5]: 10 µg/mL | MIC C. albicans [2, 5]: 50 µg/mL

WFYCNGKRVCVCR--NH2 (WFYCNGKRVCVCR-NH2; cysteine pairing not given here) [M29]
MIC S. aureus [1, 7]: 30 µg/mL | MIC C. albicans [2, 7]: 25 µg/mL

KFYCNGKRVCVCW--NH2 (KFYCNGKRVCVCW-NH2; cysteine pairing not given here) [M31]
MIC S. aureus [1, 7]: 12.7 µg/mL | MIC C. albicans [2, 7]: 12.5 µg/mL

KKYCNXRVCVCR--NH2 [M4]
MIC S. aureus [1, 7]: 3.16 µg/mL | MIC C. albicans [2, 7]: 3.12 µg/mL

VTCDILSSVEAKGVKL--NH2 (VTCDILSSVEAKGVKL-NH2) [TEC]
MIC S. aureus [1, 4]: > 500 µg/mL | MIC C. albicans [2, 4]: > 100 µg/mL
